System: LS174T colon cancer cell xenografts
Assay: In vivo antineoplastic activity and gross toxicity in LS174T xenografts
Method: Mouse studies were carried out with approval from the Institutional Animal Care and Use Committee of the University of Kentucky (2020-3531). All methods were performed in accordance with the relevant guidelines and regulations according to protocols. […] After tumors were established, mice were randomized according to tumor volume and divided into groups for treatments (five mice in each group, two tumors on each mouse).
The in vivo evaluation of ISQ-1 and BI2536 followed the approved protocol. After tumors were established, ISQ-1 was formulated in a mixture of Tween-80 (5%), DMSO (10%), PEG400 (25%) and PBS (60%) and was intraperitoneally administered to the ISQ-1 group at a daily dose of 20 mg/kg mouse body weight. The first day of treatment was set as day 0. At days 0, 4, and 7, BI2536 dissolved in 0.1 N HCl and then diluted 5-fold using 0.9% NaCl was given via gavage to the B12536 group. Mice in combination therapy group were treated with both ISQ-1 and BI2536 following aforementioned dosing schedules. At day 11 treatment was ceased and mice were sacrificed. Tumors and mouse weights were measured, and tumor volumes were calculated as Length×width^2/2.
Major biological assays were performed at least twice. Data were shown as mean SEM. For the mice study, five mice with two tumors on the lower flanks of each mouse were used in each treatment group. Sizes of the two tumors from each mouse were averaged, standardized by the tumor size on day 0, and log-transformed. ANOVA with Tukey's HSD test was used to compare the tumor size at the end of the study (day 11) between the combination therapy of ISQ-1 and B12536 and each single compound as well as the control. The equal variance assumption of ANOVA was assessed by Bartlett's test. All statistical studies were overseen in collaboration with a statistician in the University of Kentucky's Markey Cancer Center.

In the case of `CN(C)c1ccc2cc(-c3cn(C)c4ccccc34)c(N)nc2c1` [ISQ-1, N^7,N^7-Dimethyl-3-(1-methyl-1H-indol-3-yl)quinoline-2,7-diamine], the “tumor growth of LS174T xenografts” value (nude mice, ISQ-1 20 mg/kg daily i.p., BI2536 30 mg/kg twice a week by gavage, day 11) is reported as “inhibited tumor growth but did not induce tumor regression” and the “gross toxicities on the basis of mouse weight measurements” value (same dosing as efficacy study) is reported as “No gross toxicities”.
